Experimental data as given in the supplement of paper PMC10307832.

Legend:
Assay in all cases: relative viability (nuclei count vs DMSO), 5 days (fraction); higher = more cells survive
[1] = tested on: ChaGo-K-1
Method in brief: (§1)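 Dosing by pin tool came one day after lung cancer cell lines were seeded in 1536-well plates, using either one drug or a fixed anchor-drug dose plus five library-drug doses (not always all listed) in √10 steps. After 5 days, nuclei were counted on 4× images. Relative viability is treated-well nuclei count divided by vehicle-well nuclei count, and values are medians of duplicate plates.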

[2] = tested on: EMC-BAC-2
Method in brief: as §1

[3] = tested on: EPLC-272H
Method in brief: as §1

[4] = tested on: HCC-44
Method in brief: as §1

[5] = tested on: HOP-62
Method in brief: as §1

[6] = tested on: LCLC-103H
Method in brief: as §1

[7] = tested on: LOU-NH91
Method in brief: as §1

[8] = tested on: NCI-H1437
Method in brief: as §1

[9] = tested on: NCI-H1793
Method in brief: as §1

[10] = tested on: NCI-H2009
Method in brief: as §1

[11] = tested on: NCI-H2023
Method in brief: as §1

[12] = tested on: NCI-H2126
Method in brief: as §1

[13] = tested on: NCI-H2170
Method in brief: as §1

[14] = tested on: NCI-H2347
Method in brief: as §1

[15] = tested on: NCI-H23
Method in brief: as §1

[16] = tested on: NCI-H2405
Method in brief: as §1

[17] = tested on: NCI-H441
Method in brief: as §1

[18] = tested on: NCI-H460
Method in brief: as §1

[19] = tested on: NCI-H520
Method in brief: as §1

[20] = tested on: NCI-H647
Method in brief: as §1

[21] = tested on: NCI-H650
Method in brief: as §1

[22] = tested on: NCI-H727
Method in brief: as §1

[23] = tested on: SW 1573
Method in brief: as §1

In the case of `Cc1cnc(-c2cnc(NCCNc3ccc(C#N)cn3)nc2-c2ccc(Cl)cc2Cl)[nH]1` + COc1cccc2cc(-c3nc([C@H]4CC[C@H](C(=O)O)CC4)n4ncnc(N)c34)[nH]c12 [OSI-027] (partner 0.5 µM), the relative viability ([1]; first compound 0.08 µM) is reported as 0.608, the relative viability ([1]; first compound 0.253 µM) is reported as 0.442 and the relative viability ([1]; first compound 0.8 µM) is reported as 0.623. For the same compound, the relative viability ([1]; first compound 2.53 µM) was 0.592, the relative viability ([2]; first compound 0.08 µM) was 0.407 and the relative viability ([2]; first compound 0.253 µM) was 0.37. The relative viability ([2]; first compound 0.8 µM) was 0.341, the relative viability ([2]; first compound 2.53 µM) was 0.447 and the relative viability ([3]; first compound 0.08 µM) was 0.342. For the same compound, the relative viability ([3]; first compound 0.253 µM) was 0.261, the relative viability ([3]; first compound 0.8 µM) was 0.304 and the relative viability ([3]; first compound 2.53 µM) was 0.317. The relative viability ([4]; first compound 0.08 µM) was 0.555, the relative viability ([4]; first compound 0.253 µM) was 0.483 and the relative viability ([4]; first compound 0.8 µM) was 0.485. The relative viability ([4]; first compound 2.53 µM) was 0.932, the relative viability ([5]; first compound 0.08 µM) was 0.914 and the relative viability ([5]; first compound 0.253 µM) was 0.813. For the same compound, the relative viability ([5]; first compound 0.8 µM) was 0.972, the relative viability ([5]; first compound 2.53 µM) was 0.795 and the relative viability ([6]; first compound 0.08 µM) was 0.46. It also gave a relative viability ([6]; first compound 0.253 µM) of 0.413, a relative viability ([6]; first compound 0.8 µM) of 0.428 and a relative viability ([6]; first compound 2.53 µM) of 0.473. It also gave a relative viability ([7]; first compound 0.08 µM) of 0.732, a relative viability ([7]; first compound 0.253 µM) of 0.709 and a relative viability ([7]; first compound 0.8 µM) of 0.751. For the same compound, the relative viability ([7]; first compound 2.53 µM) was 0.673, the relative viability ([8]; first compound 0.08 µM) was 0.896 and the relative viability ([8]; first compound 0.253 µM) was 0.88. For the same compound, the relative viability ([8]; first compound 0.8 µM) was 0.916, the relative viability ([8]; first compound 2.53 µM) was 0.976 and the relative viability ([9]; first compound 0.08 µM) was 0.322. The relative viability ([9]; first compound 0.253 µM) was 0.276, the relative viability ([9]; first compound 0.8 µM) was 0.191 and the relative viability ([9]; first compound 2.53 µM) was 0.279. The relative viability ([10]; first compound 0.08 µM) was 0.729, the relative viability ([10]; first compound 0.253 µM) was 0.597 and the relative viability ([10]; first compound 0.8 µM) was 0.609. It also gave a relative viability ([10]; first compound 2.53 µM) of 0.496, a relative viability ([11]; first compound 0.08 µM) of 0.565 and a relative viability ([11]; first compound 0.253 µM) of 0.395. It also gave a relative viability ([11]; first compound 0.8 µM) of 0.431, a relative viability ([11]; first compound 2.53 µM) of 0.715 and a relative viability ([12]; first compound 0.08 µM) of 0.704. For the same compound, the relative viability ([12]; first compound 0.253 µM) was 0.622, the relative viability ([12]; first compound 0.8 µM) was 0.64 and the relative viability ([12]; first compound 2.53 µM) was 0.776. The relative viability ([13]; first compound 0.08 µM) was 0.732, the relative viability ([13]; first compound 0.253 µM) was 0.554 and the relative viability ([13]; first compound 0.8 µM) was 0.705. The relative viability ([13]; first compound 2.53 µM) was 0.609, the relative viability ([14]; first compound 0.08 µM) was 0.397 and the relative viability ([14]; first compound 0.253 µM) was 0.415. The relative viability ([14]; first compound 0.8 µM) was 0.324, the relative viability ([14]; first compound 2.53 µM) was 0.426 and the relative viability ([15]; first compound 0.08 µM) was 0.592. For the same compound, the relative viability ([15]; first compound 0.253 µM) was 0.539, the relative viability ([15]; first compound 0.8 µM) was 0.58 and the relative viability ([15]; first compound 2.53 µM) was 0.678. The relative viability ([16]; first compound 0.08 µM) was 0.655, the relative viability ([16]; first compound 0.253 µM) was 0.654 and the relative viability ([16]; first compound 0.8 µM) was 0.654. For the same compound, the relative viability ([16]; first compound 2.53 µM) was 0.615, the relative viability ([17]; first compound 0.08 µM) was 0.739 and the relative viability ([17]; first compound 0.253 µM) was 0.664. The relative viability ([17]; first compound 0.8 µM) was 0.453, the relative viability ([17]; first compound 2.53 µM) was 0.459 and the relative viability ([18]; first compound 0.08 µM) was 0.749. For the same compound, the relative viability ([18]; first compound 0.253 µM) was 0.582, the relative viability ([18]; first compound 0.8 µM) was 0.675 and the relative viability ([18]; first compound 2.53 µM) was 0.669. It also gave a relative viability ([19]; first compound 0.08 µM) of 0.24, a relative viability ([19]; first compound 0.253 µM) of 0.288 and a relative viability ([19]; first compound 0.8 µM) of 0.274. For the same compound, the relative viability ([19]; first compound 2.53 µM) was 0.28, the relative viability ([20]; first compound 0.08 µM) was 0.752 and the relative viability ([20]; first compound 0.253 µM) was 0.512. For the same compound, the relative viability ([20]; first compound 0.8 µM) was 0.725, the relative viability ([20]; first compound 2.53 µM) was 0.55 and the relative viability ([21]; first compound 0.08 µM) was 0.571. The relative viability ([21]; first compound 0.253 µM) was 0.517, the relative viability ([21]; first compound 0.8 µM) was 0.582 and the relative viability ([21]; first compound 2.53 µM) was 0.486. The relative viability ([22]; first compound 0.08 µM) was 0.588, the relative viability ([22]; first compound 0.253 µM) was 0.589 and the relative viability ([22]; first compound 0.8 µM) was 0.518. The relative viability ([22]; first compound 2.53 µM) was 0.442, the relative viability ([23]; first compound 0.08 µM) was 0.538 and the relative viability ([23]; first compound 0.253 µM) was 0.483. It also gave a relative viability ([23]; first compound 0.8 µM) of 0.33 and a relative viability ([23]; first compound 2.53 µM) of 0.363.
